Data on 1 sequence can be found in patent publication US9457044B2, “Methods and compositions for wound healing” (CoDa Therapeutics, Inc., priority 2006, dated 2016).

In data set [1] the test system is skin wounds. Put plainly: Full-thickness excisional skin wound healing (wound area, re-epithelialization). In kind it is in vivo, mice. As to the method:
Male, 8 week old, ICR mice were used in the following experiments. All the mice were kept under specific pathogen-free conditions in an environmentally controlled clean room at University College London and all the experiments were carried out under UK Home Office regulations. Mice were anaesthetized by halothane inhalation. Four full-thickness excisional wounds of 6 mm diameter were made on the shaved back on either side of the dorsal midline with a 6 mm biopsy punch (Kai Industries). To each pair of wounds a single topical application of 50 μl of 1 μM Cx43 as ODN (SEQ. ID No. 2) (Sigma-Genosys) in 30% Pluronic F-127 gel (Sigma-Aldrich), chilled on ice, was made to one wound, and an identical application of 1 μM sense control sODNs was made to the other. […] Targeting connexin 43 expression accelerates the rate of wound repair. Curr Biol 13, 1697-703). Each wound region was digitally photographed at the indicated time intervals, and the areas of the wounds were calculated. All wound areas were expressed as percentages of the initial wound areas. In some series of experiments, wounds and their surrounding area, including the scab and epithelial margins, were harvested with an 8 mm biopsy punch (Kai Industries) at the indicated time intervals after mice were killed with an overdose of chloroform. A minimum of eight mice were used for each time point examined.

Data set [2] deals with Ccl2 mRNA. Put plainly: Real-Time PCR of Ccl2 at wound sites. Format: in vivo, mice. The settings on record: day 2; P<0.05 versus control sODN. As to the method:
(§1) Male, 8 week old, ICR mice were used in the following experiments. All the mice were kept under specific pathogen-free conditions in an environmentally controlled clean room at University College London and all the experiments were carried out under UK Home Office regulations. Mice were anaesthetized by halothane inhalation. Four full-thickness excisional wounds of 6 mm diameter were made on the shaved back on either side of the dorsal midline with a 6 mm biopsy punch (Kai Industries). To each pair of wounds a single topical application of 50 μl of 1 μM Cx43 as ODN (SEQ. ID No. 2) (Sigma-Genosys) in 30% Pluronic F-127 gel (Sigma-Aldrich), chilled on ice, was made to one wound, and an identical application of 1 μM sense control sODNs was made to the other. […] R. and Becker, D. L. (2003). Targeting connexin 43 expression accelerates the rate of wound repair. Curr Biol 13, 1697-703). Each wound region was digitally photographed at the indicated time intervals, and the areas of the wounds were calculated. All wound areas were expressed as percentages of the initial wound areas. […]
(§2) Gene specific primers and probe were obtained as TaqMan® Gene Expression Assays (Applied Biosystems) for Cx43, Ccl2, Co1α1, TNFα and TGFβ1. […] Each sample was analyzed in duplicate. […]
On the technique in general: Quantitative PCR measures a nucleic acid by following its amplification.

The subject of data set [3] is Swiss 3T3 fibroblasts. Put plainly: Cell migration assay by wounding (fibroblast scrape wound assay). Conditions: 20 μM for two hours before scrape wound; 4 hours after wounding. In kind it is cell-based. As to the method: Swiss 3T3 fibroblasts were grown in Dulbecco's modified Eagle's medium (DMEM; Gibco) supplemented with 10% fetal calf serum (Labtech) and 1% penicillinstreptomycin solution (Sigma, Poole) in a 5% CO2 incubator at 37° C. Unless otherwise stated, the cells were maintained in this medium for most experiments. The cells were passaged by trypsinization and used at passages 6-10 at a confluency of Z 90%. Cells were plated on 13 mm glass coverslips in 24-well dishes (Nunc) with 4−5×10^5 cells per well containing 1 ml of medium. Cells reached confluency after 72 hours and were then used for experimentation.
The fibroblast cell assay involved creating a “wound” in a confluent monolayer of fibroblast cells. This widely used in vitro technique mimics the behaviour of migrating cells in vivo (Lampugnani, M. G. (1999) Cell Migration into a wounded area in vitro. Methods Mol Biol 96: 177-182). Wounding was performed by drawing a microelectrode across the coverslip, producing a lesion of standard width. Phase contrast images were acquired using a ×5 objective on a Zeiss inverted microscope with an incubation chamber at 370 and 5% CO2. […] Migration was quantified by image analysis, measuring the change in wound area (pixels) using Image J software (NIH). […]

The test system of data set [4] is collagen type 1α1. As to the kind of experiment: Real-Time PCR of Col1α1 at wound sites. On the set-up: species or system mice. Conditions: mouse, in vivo. As to the method:
as §1, §2

For “GTAATTGCGGCAGGAGGAATTGTTTCTGTC (antisense GTAATTGCGGCAGGAGGAATTGTTTCTGTC; in Pluronic F-127 gel, further chemistry not given here) [Cx43 asODN]”, the “macroscopic wound appearance and closure versus control wounds” value in data set [1] (days 1 and 2) was “significantly smaller, drier, less inflamed and closed faster”. In addition, the “re-epithelialisation versus control ODN treated wounds” value in data set [1] (excisional and incisional wounds) is “re-epithelialise more rapidly”. Further, in data set [2], the “expression level of Ccl2 mRNA” value is on record as “significantly reduced”. Moreover, the “rate of wound closure in fibroblast cultures compared to controls” value in data set [3] is recorded as “significantly (P=0.02) enhanced”. The “collagen type 1α1 in treated wounds” value in data set [4] was “increased”.
